From the supplement of paper PMC10307832

Assays:
Test in all cases: relative viability (nuclei count vs DMSO), 5 days (fraction); higher = more cells survive
[1] = compound: O=S(=O)(c1ccccc1)N(CC(F)(F)F)c1ccc(C(O)(C(F)(F)F)C(F)(F)F)cc1 + C[C@@H](Oc1cc(-c2cnn(C3CCNCC3)c2)cnc1N)c1c(Cl)ccc(F)c1Cl [Crizotinib] (partner 1 µM)
Summary of the method: (§1)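 Lung cancer cell lines, seeded in 1536-well plates, were treated the following day by pin tool with a single drug or with five library-drug doses (not always all listed) in √10 steps on top of a fixed anchor-drug dose. Cells were fixed and nuclei stained in one step after 5 days, and nuclei were counted. Relative viability is the nuclei count for treated wells divided by that for vehicle wells, reported as medians of duplicate plates.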

[2] = compound: C1=CC2=C(C=CC(=C2)C=C3C(=O)NC(=NCC4=CC=CS4)S3)N=C1 [RO-3306] + COc1cccc2cc(-c3nc([C@H]4CC[C@H](C(=O)O)CC4)n4ncnc(N)c34)[nH]c12 [OSI-027] (partner 0.5 µM)
Summary of the method: as §1

[3] = compound: C1=CC2=C(C=CC(=C2)C=C3C(=O)NC(=NCC4=CC=CS4)S3)N=C1 [RO-3306] + CC(C)C[C@H](NC(=O)[C@H](Cc1ccccc1)NC(=O)c1cnccn1)B(O)O [Bortezomib] (partner 0.002 µM)
Summary of the method: as §1

[4] = compound: O=S(=O)(c1ccccc1)N(CC(F)(F)F)c1ccc(C(O)(C(F)(F)F)C(F)(F)F)cc1 + CCNC(=O)c1noc(-c2cc(C(C)C)c(O)cc2O)c1-c1ccc(CN2CCOCC2)cc1 [Luminespib] (partner 0.01 µM)
Summary of the method: as §1

[5] = compound: O=S(=O)(c1ccccc1)N(CC(F)(F)F)c1ccc(C(O)(C(F)(F)F)C(F)(F)F)cc1 + C[C@]1(O)C[C@@H](c2nc(-c3ccc4ccc(-c5ccccc5)nc4c3)c3c(N)nccn32)C1 [Linsitinib] (partner 1 µM)
Summary of the method: as §1

Cell Line | relative viability ([1]; first compound 0.8 µM) | relative viability ([1]; first compound 2.53 µM) | relative viability ([1]; first compound 8 µM) | relative viability ([2]; first compound 0.01 µM) | relative viability ([2]; first compound 0.03162 µM) | relative viability ([2]; first compound 0.1 µM) | relative viability ([2]; first compound 0.3162 µM) | relative viability ([2]; first compound 1 µM) | relative viability ([3]; first compound 0.01 µM) | relative viability ([3]; first compound 0.03162 µM) | relative viability ([3]; first compound 0.1 µM) | relative viability ([3]; first compound 0.3162 µM) | relative viability ([3]; first compound 1 µM) | relative viability ([4]; first compound 0.8 µM) | relative viability ([4]; first compound 2.53 µM) | relative viability ([4]; first compound 8 µM) | relative viability ([5]; first compound 0.8 µM) | relative viability ([5]; first compound 2.53 µM) | relative viability ([5]; first compound 8 µM)
HCC-15 | 0.867 | 0.766 | 0.676 | 0.664 | 0.562 | 0.649 | 0.808 | 0.608 | 1.04 | 0.804 | 1.01 | 1.06 | 0.727 | 0.299 | 0.233 | 0.245 | 0.798 | 0.758 | 0.812
EKVX | 1.09 | 0.85 | 0.898 | 0.757 | 0.646 | 0.661 | 0.955 | 0.684 | 1.23 | 0.923 | 1.06 | 1.12 | 0.989 | 0.84 | 0.576 | 0.73 | 0.897 | 0.946 | 0.931
PC-14 | 1.1 | 0.893 | 0.932 | 0.895 | 0.609 | 0.76 | 1.37 | 0.86 | 1.16 | – | 0.991 | 0.941 | 0.865 | 0.153 | 0.132 | 0.19 | 1.23 | 1.07 | 0.888
LCLC-97TM1 | 0.314 | 0.371 | 0.297 | 0.53 | 0.391 | 0.476 | 0.549 | 0.454 | 1.06 | – | 0.689 | 0.455 | 0.531 | 0.716 | 0.744 | 0.682 | 0.197 | 0.179 | 0.202
NCI-H520 | 0.939 | 0.767 | 0.855 | 0.288 | 0.283 | 0.225 | 0.254 | 0.304 | 0.802 | 0.369 | 0.5 | 0.582 | 0.435 | 0.218 | 0.242 | 0.237 | 1.09 | 1.23 | 1.25
NCI-H2405 | 0.884 | 0.837 | 0.9 | 0.609 | 0.591 | 0.629 | 0.614 | 0.626 | 1.07 | 0.963 | 0.982 | 0.959 | 1.03 | 0.718 | 0.616 | 0.646 | 1.05 | 0.913 | 0.983
NCI-H596 | 0.921 | 0.947 | 0.926 | 0.788 | 0.72 | 0.7 | 0.729 | 0.579 | 0.939 | 0.917 | 1.18 | 0.812 | 0.962 | 1.13 | 0.69 | 0.923 | 1.17 | 0.838 | 0.968
EPLC-272H | 1.24 | 0.742 | 0.841 | 0.259 | 0.252 | 0.29 | 0.223 | 0.283 | 0.735 | 0.526 | 0.825 | 0.769 | 0.843 | 0.166 | 0.497 | 0.265 | 1.12 | 1.32 | 1.11
RERF-LC-KJ | 0.787 | 0.749 | 0.773 | 0.632 | 0.53 | 0.556 | 0.598 | 0.556 | 1.3 | 0.952 | 1.01 | 0.987 | 1.01 | 1.29 | 1.17 | 1.17 | 0.901 | 0.779 | 0.801
HARA | 0.98 | 0.945 | 0.682 | 0.661 | 0.449 | 0.527 | 0.612 | 0.436 | 1.15 | 0.74 | 1.11 | 1.11 | 0.991 | 0.652 | 0.263 | 0.414 | 0.901 | 0.847 | 0.776
NCI-H838 | 1.05 | 0.866 | 0.815 | 0.334 | 0.394 | 0.35 | 0.412 | 0.373 | 0.825 | 0.523 | 0.661 | 0.808 | 0.685 | 0.24 | 0.257 | 0.299 | 1.13 | 1.04 | 0.97
NCI-H1792 | 0.843 | 0.75 | 0.818 | 0.896 | – | 0.743 | 0.81 | 0.551 | 1.17 | – | 0.95 | 0.991 | 0.538 | 0.419 | 0.359 | 0.269 | 0.396 | 0.392 | 0.22
NCI-H727 | 0.832 | 0.844 | 0.646 | 0.567 | 0.548 | 0.557 | 0.608 | 0.674 | 0.878 | 0.733 | 0.84 | 0.817 | 0.948 | 0.389 | 0.292 | 0.358 | 0.279 | 0.376 | 0.212
BEN | 0.952 | 0.89 | 0.766 | 0.333 | 0.3 | 0.256 | 0.297 | 0.283 | 0.795 | 0.724 | 0.867 | 0.849 | 0.747 | 0.343 | 0.289 | 0.182 | 1.09 | 0.858 | 0.82
NCI-H1437 | 0.909 | 0.706 | 0.744 | 0.936 | 0.814 | 0.825 | 0.912 | 0.878 | 0.57 | 0.346 | 0.529 | 0.582 | 0.484 | 1.12 | 0.903 | 0.831 | 1.07 | 0.859 | 0.893
SK-LU-1 | 1.06 | 0.748 | 0.736 | 0.283 | 0.285 | 0.325 | 0.314 | 0.339 | 0.767 | 0.932 | 1.08 | 1.34 | 0.853 | 0.169 | 0.165 | 0.196 | 1.09 | 0.97 | 0.881
NCI-H1915 | 0.958 | 0.894 | 0.834 | 0.698 | 0.594 | 0.613 | 0.637 | 0.396 | 1.07 | 0.895 | 1.09 | 1.01 | 0.488 | 0.813 | 0.776 | 0.786 | 1.14 | 1.03 | 1.06
